# Source: US12077503B2, “Substituted cyclic amides and their use as herbicides” (FMC CORPORATION, priority 2015, dated 2024)
# Legend:
# Assay type in all cases: in vivo
# [1] = system: giant foxtail (Setaria faberii); assay: Test A postemergence; conditions: Setaria faberi, post-emergence, 240 h
# How it was run: (§1)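 Each rating is a visual injury score from 0 to 100 given about 10 d after treatment, judged against untreated controls kept alongside in the greenhouse. In loam soil–sand blend, seeds got a preemergence directed soil spray, while postemergence plants were 2 to 10 cm tall at spraying.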
# [2] = system: Galium (catchweed bedstraw, Galium aparine); assay: Test A postemergence; conditions: Galium, post-emergence, 240 h
# How it was run: as §1
# [3] = system: ragweed (common ragweed, Ambrosia elatior); assay: Test A postemergence; conditions: Ambrosia artemisiifolia, post-emergence, 240 h
# How it was run: as §1
# [4] = system: ryegrass, Italian (Italian ryegrass, Lolium multiflorum); assay: Test A postemergence; conditions: Lolium multiflorum, post-emergence, 240 h
# How it was run: as §1
# [5] = system: pigweed (Amaranthus retroflexus); assay: Test A postemergence; conditions: Amaranthus retroflexus, post-emergence, 240 h
# How it was run: as §1
# [6] = system: wheat (Triticum aestivum); assay: Test A postemergence; conditions: Triticum aestivum, post-emergence, 240 h
# How it was run: as §1
# [7] = system: barnyardgrass (Echinochloa crus-galli); assay: Test A postemergence; conditions: Echinochloa crus-galli, post-emergence, 240 h
# How it was run: as §1
# Kochia (Kochia scoparia) [8] = assay: Test A postemergence; conditions: Bassia scoparia, post-emergence, 240 h
# How it was run: as §1
# [9] = system: blackgrass (Alopecurus myosuroides); assay: Test A postemergence; conditions: Alopecurus myosuroides, post-emergence, 240 h
# How it was run: as §1
# corn (Zea mays) = assay: Test A postemergence; conditions: Zea mays, post-emergence, 240 h
# How it was run: as §1
# [10] = system: giant foxtail (Setaria faberii); assay: Test A preemergence; conditions: Setaria faberi, pre-emergence, 240 h, 0 to 100 scale where 0 is no effect and 100 is complete control, read-out: Foxtail, Giant plant response rating
# How it was run: as §1
# [11] = system: ragweed (common ragweed, Ambrosia elatior); assay: Test A preemergence; conditions: Ambrosia artemisiifolia, pre-emergence, 240 h, 0 to 100 scale where 0 is no effect and 100 is complete control, read-out: Ragweed plant response rating
# How it was run: as §1
# [12] = system: ryegrass, Italian (Italian ryegrass, Lolium multiflorum); assay: Test A preemergence; conditions: Lolium multiflorum, pre-emergence, 240 h, 0 to 100 scale where 0 is no effect and 100 is complete control, read-out: Ryegrass, Italian plant response rating
# How it was run: as §1
# [13] = system: pigweed (Amaranthus retroflexus); assay: Test A preemergence; conditions: Amaranthus retroflexus, pre-emergence, 240 h, 0 to 100 scale where 0 is no effect and 100 is complete control, read-out: Pigweed plant response rating
# [14] = system: barnyardgrass (Echinochloa crus-galli); assay: Test A preemergence; conditions: Echinochloa crus-galli, pre-emergence, 240 h, 0 to 100 scale where 0 is no effect and 100 is complete control, read-out: Barnyardgrass plant response rating
# How it was run: as §1
# Kochia (Kochia scoparia) [15] = assay: Test A preemergence; conditions: Bassia scoparia, pre-emergence, 240 h, 0 to 100 scale where 0 is no effect and 100 is complete control, read-out: Kochia plant response rating
# How it was run: as §1
# [16] = system: sedge, umbrella (small-flower umbrella sedge, Cyperus difformis); assay: Test B flooded paddy test; conditions: Cyperus difformis, 250 g ai/ha, Flood; 0 to 100 scale where 0 is no effect and 100 is complete control; read-out: Sedge, Umbrella plant response rating
# How it was run: (§2)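 Visual ratings (0 none to 100 complete control) are relative to untreated plants, taken 13–15 d after treatment in a greenhouse. Test material went straight into floodwater standing 3 cm above the soil, kept constant, on plants at the 2-leaf stage.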
# [17] = system: barnyardgrass (Echinochloa crus-galli); assay: Test B flooded paddy test; conditions: Echinochloa crus-galli, 250 g ai/ha, Flood; 0 to 100 scale where 0 is no effect and 100 is complete control; read-out: Barnyardgrass plant response rating
# How it was run: as §2
# rice (Oryra sativa) = assay: Test B flooded paddy test; conditions: Oryza sativa, 250 g ai/ha, Flood; 0 to 100 scale where 0 is no effect and 100 is complete control; read-out: Rice plant response rating
# How it was run: as §2
# [18] = system: ducksalad (Heteranthera limosa); assay: Test B flooded paddy test; conditions: Heteranthera limosa, 250 g ai/ha, Flood; 0 to 100 scale where 0 is no effect and 100 is complete control; read-out: Ducksalad plant response rating
# How it was run: as §2
# [19] = 125 g ai/ha, preemergence, approx. 10 d
smiles,measurement,setting,value
C=C(C)c1cccc([C@H]2CN(C)C(=O)[C@@H]2C(=O)Nc2cccc(F)c2C)c1 [Compound 1086],pest or weed control at 125 g/ha,"[1]; 125 g ai/ha, postemergence, visual injury on 0 to 100 scale (0 no effect, 100 complete control), approx. 10 d, read-out: Foxtail, Giant plant response rating",60%
same,pest or weed control at 31 g/ha,"[1]; Postemergence, 31 g ai/ha, visual injury after approx. 10 d, 0 to 100 scale, 0 no effect, 100 complete control, read-out: Plant response rating, Foxtail, Giant",10%
same,pest or weed control at 125 g/ha,"[2]; 125 g ai/ha, postemergence, visual injury on 0 to 100 scale (0 no effect, 100 complete control), approx. 10 d, read-out: Galium plant response rating",20%
same,pest or weed control at 31 g/ha,"[2]; Postemergence, 31 g ai/ha, visual injury after approx. 10 d, 0 to 100 scale, 0 no effect, 100 complete control, read-out: Plant response rating, Galium",0%
same,pest or weed control at 125 g/ha,"[3]; 125 g ai/ha, postemergence, visual injury on 0 to 100 scale (0 no effect, 100 complete control), approx. 10 d, read-out: Ragweed plant response rating",0%
same,pest or weed control at 31 g/ha,"[3]; Postemergence, 31 g ai/ha, visual injury after approx. 10 d, 0 to 100 scale, 0 no effect, 100 complete control, read-out: Plant response rating, Ragweed",0%
same,pest or weed control at 125 g/ha,"[4]; 125 g ai/ha, postemergence, visual injury on 0 to 100 scale (0 no effect, 100 complete control), approx. 10 d, read-out: Ryegrass, Italian plant response rating",0%
same,pest or weed control at 31 g/ha,"[4]; Postemergence, 31 g ai/ha, visual injury after approx. 10 d, 0 to 100 scale, 0 no effect, 100 complete control, read-out: Plant response rating, Ryegrass, Italian",0%
same,pest or weed control at 125 g/ha,"[5]; 125 g ai/ha, postemergence, visual injury on 0 to 100 scale (0 no effect, 100 complete control), approx. 10 d, read-out: Pigweed plant response rating",0%
same,pest or weed control at 31 g/ha,"[5]; Postemergence, 31 g ai/ha, visual injury after approx. 10 d, 0 to 100 scale, 0 no effect, 100 complete control, read-out: Plant response rating, Pigweed",0%
same,plant injury at 125 g/ha,"[6]; 125 g ai/ha, postemergence, visual injury on 0 to 100 scale (0 no effect, 100 complete control), approx. 10 d, read-out: Wheat plant response rating",20%
same,plant injury at 31 g/ha,"[6]; Postemergence, 31 g ai/ha, visual injury after approx. 10 d, 0 to 100 scale, 0 no effect, 100 complete control, read-out: Plant response rating, Wheat",0%
same,pest or weed control at 125 g/ha,"[7]; 125 g ai/ha, postemergence, visual injury on 0 to 100 scale (0 no effect, 100 complete control), approx. 10 d, read-out: Barnyardgrass plant response rating",90%
same,pest or weed control at 31 g/ha,"[7]; Postemergence, 31 g ai/ha, visual injury after approx. 10 d, 0 to 100 scale, 0 no effect, 100 complete control, read-out: Plant response rating, Barnyardgrass",30%
same,pest or weed control at 125 g/ha,"Kochia (Kochia scoparia) [8]; 125 g ai/ha, postemergence, visual injury on 0 to 100 scale (0 no effect, 100 complete control), approx. 10 d, read-out: Kochia plant response rating",0%
same,pest or weed control at 31 g/ha,"Kochia (Kochia scoparia) [8]; Postemergence, 31 g ai/ha, visual injury after approx. 10 d, 0 to 100 scale, 0 no effect, 100 complete control, read-out: Plant response rating, Kochia",0%
same,pest or weed control at 125 g/ha,"[9]; 125 g ai/ha, postemergence, visual injury on 0 to 100 scale (0 no effect, 100 complete control), approx. 10 d, read-out: Blackgrass plant response rating",0%
same,pest or weed control at 31 g/ha,"[9]; Postemergence, 31 g ai/ha, visual injury after approx. 10 d, 0 to 100 scale, 0 no effect, 100 complete control, read-out: Plant response rating, Blackgrass",0%
same,plant injury at 125 g/ha,"corn (Zea mays); 125 g ai/ha, postemergence, visual injury on 0 to 100 scale (0 no effect, 100 complete control), approx. 10 d, read-out: Corn plant response rating",30%
same,"Corn plant response rating (crop injury, 0 = no effect, 100 = complete kill) at 31 g/ha","corn (Zea mays); Postemergence, 31 g ai/ha, visual injury after approx. 10 d, 0 to 100 scale, 0 no effect, 100 complete control",0%
same,pest or weed control at 31 g/ha,"[10]; 31 g ai/ha, Preemergence",90%
same,pest or weed control at 125 g/ha,[10]; [19],100%
same,pest or weed control at 31 g/ha,"[11]; 31 g ai/ha, Preemergence",0%
same,pest or weed control at 125 g/ha,[11]; [19],0%
same,pest or weed control at 31 g/ha,"[12]; 31 g ai/ha, Preemergence",0%
same,pest or weed control at 125 g/ha,[12]; [19],30%
same,pest or weed control at 31 g/ha,"[13]; 31 g ai/ha, Preemergence",0%
same,pest or weed control at 125 g/ha,[13]; [19],0%
same,pest or weed control at 31 g/ha,"[14]; 31 g ai/ha, Preemergence",80%
same,pest or weed control at 125 g/ha,[14]; [19],80%
same,pest or weed control at 31 g/ha,"Kochia (Kochia scoparia) [15]; 31 g ai/ha, Preemergence",0%
same,pest or weed control at 125 g/ha,Kochia (Kochia scoparia) [15]; [19],0%
same,pest or weed control at 250 g/ha,[16],0%
same,pest or weed control at 250 g/ha,[17],45%
same,pest or weed control at 250 g/ha,rice (Oryra sativa),0%
same,pest or weed control at 250 g/ha,[18],40%
